Measurements: patent US20010049113A1, “Diagnosis and treatment of herpes infections” (priority 2000, published 2001)

Legend:
HSV-1 [1] = experiment: HSV-1 virus yield from H-ras transformed cells, plaque titration on Vero cells; type: cell-based; details: MOI 0.5 PFU/cell, harvested 22 hours post infection, inhibitor present for entire infection
ATF-2 phosphorylation = ATF-2 phosphorylation in H-ras cells, Western blot; type: cell-based, murine; details: SB203580
Source text: (§1) Briefly, subconfluent monolayer cultures were lysed with the recommended SDS-containing sample buffer, the lysate was subjected to SDS-PAGE and electroblotted onto nitrocellulose paper. Blots were probed with anti-ERK1/2 or anti-phospho-ERK1/2 antibodies (for samples treated with FTI-1 or PD98059), anti-ATF-2 or anti-phospho-ATF-2 (for samples treated with SB203580), and anti-Akt and anti-phospho-Akt (for samples treated with Wortmannin). The antibody kits were purchased from New England Biolabs (MA). FTI-1, PD98059, SB203580 and Wortmannin were purchased from Calbiochem (CA).

HSV-1 [2] = experiment: HSV-1 viral protein synthesis in infected H-ras transformed NIH-3T3 cells, Western blot with rabbit anti-HSV-1 antibody; type: cell-based, HSV-1 (strain F); details: for HSV-1 infection / infectivity (summary statement) / production of viral proteins: H-ras transformed NIH-3T3 cells; for production of viral proteins: 22 hours post-infection
Method: (§2) Western blot (Immunoblot) analysisinfected cells were lysed with the single detergent lysis buffer [50 mM Tris (pH 8.0), 150 mM NaCI, 0.02% sodium azide, 100 μg/ml phenylmethy-sulfonyl fluoride, 1 μg/ml aprotinin, and 1% Triton X-100], normalized for the amount of total protein and subjected to SDS-PAGE, followed by electroblotting onto nitrocellulose paper. The membrane was then washed and incubated with the primary antibody [rabbit antibody against all HSV-1 antigens (Dako, CA.; 1:20,000); mouse anti-ICP27 or anti-gC antibody (Rumbaugh-Goodwin Institute, FL; 1:1,000); rabbit anti-ICP8 antibody (from Dr. Paul Olivo, Washington University, St. Louis; 1:1,000); mouse anti-PKR and mouse anti-eIF-2 α antibody (Santa Cruz; 1:1,000); rabbit anti-phospho-PKR and rabbit antiphospho-eIF-2 α antibody (Biosource, CA; 1:1,000) followed by HRP-conjugated secondary antibody (1:2,000). After extensive washing, the blot was exposed to Lumigel detection solution (New England Biolabs) and subjected to autoradiography.
(§3) H-ras transformed NIH-3T3 cells were exposed to the farnesyl transferase inhibitors FTI-1 at a final concentration 50 μM or 100 μM in the culture medium. Control cells were not exposed to inhibitor. At 22 hours post-infection the cells were harvested and Western blot analysis was performed on these samples using rabbit anti-HSV-1 antibody, as described above.
as §3, with “To determine whether other inhibitors of farnesyl transferase would have the same effect on viral protein synthesis, three additional inhibitors were tested. H-ras” for “H-ras”, “FPTI-1, FPTI-2 and FTI-4” for “FTI-1”, “150 μM, 150” for “50”, “or 50” for “100”, “postinfection” for “post-infection”
HSV-1 infected H-ras transformed NIH-3T3 cells were exposed to 40 μM PD98059 in the culture medium. Control cells (HSV-1 infected) were not exposed to PD98059. At 22 hours post-infection, the cells were harvested and Western blot analysis was performed on these samples using rabbit anti-HSV antibody, as described above.
P-13 Kinase Pathway is Not Involved in HSV-1 InfectionH-ras cells that were infected with HSV-1 were exposed to Wortmannin at a final concentration of 200 nM for the entire duration of the infection. Cells were harvested at 22 hr. post infection, lysed and subjected to SDS PAGE followed by immunoblotting with a rabbit anti-HSV-1 antibody.

[3] = tested on: ERK1/2 (Erk42/44) phosphorylation; experiment: ERK1/2 phosphorylation in H-ras cells, Western blot; type: cell-based, murine
Source text: as §1

PKR phosphorylation = PKR phosphorylation in HSV-1 infected H-ras cells, immunoblot with anti-PKR / anti-phospho-PKR; type: cell-based, murine
Method: as §2
H-ras cells were exposed to FTI-1 (100 μM) or PD98059(40 μM) and the phosphorylation state of PKR was assessed using anti-PKR (total PKR) or anti-phospho-PKR (P-PKR) antibodies . […] The difference in phosphorylation of PKR in infected NIH-3T3 cells and in infected MEF cells is shown in the right side of FIG. 10, Panel “B”.

HSV-1 [4] = experiment: Immunofluorescence of HSV-1-infected A549 cells; type: cell-based; details: 100 μM FTI-1
HSV-1 [5] = experiment: HSV-1 viral protein synthesis in PKR+/+ and PKR-/- mouse embryo fibroblasts, Western blot; type: cell-based; details: MOI 0.5 PFU/cell, 20 hr post-infection
Method: The PKR^+/^+ and PKR^−/^− mouse embryo fibroblasts were obtained from Dr. B. R. G. Williams (the Cleveland Clinic Foundation) and were grown in α-MEM containing 10% FBS and antibiotics, as described.
as §2, with “After extensive washing, the blot was exposed to Lumigel detection solution (New England Biolabs) and subjected to autoradiography.” left out
The level of infection by R3616 in PKR^−/^− fibroblasts is equivalent to that seen in cells transformed by Ras, or elements of the Ras pathway. […] Cells were harvested at 20 hr post-infection and analyzed for viral proteins as above. […]

| SMILES | virus yield (plaque titration on Vero cells) (HSV-1 [1]) | phosphorylation of ATF-2 (ATF-2 phosphorylation) | HSV-1 infection / infectivity (summary statement) (HSV-1 [2]) | effect on HSV-1 infection (viral proteins, immunoblot) (HSV-1 [2]; SB203580 at effective doses, H-ras transformed cells) | phosphorylation of ERK1/2 (Erk42/44) ([3]; PD98059 40 μM) | PKR phosphorylation (PKR phosphorylation; PD98059 40 μM) | production of viral proteins (HSV-1 [2]; 40 μM PD98059, vs control) | phosphorylation of ERK1/2 (ERK42/44) ([3]; FTI-1 50 μM or 100 μM) | PKR phosphorylation (PKR phosphorylation; FTI-1 100 μM) | level of viral proteins detected by immunofluorescence (HSV-1 [4]) | HSV-1 infection (viral protein synthesis) (HSV-1 [5]; PKR+/+ cells) | HSV-1 infection (viral protein synthesis) (HSV-1 [5]; PKR-/- cells) | production of viral proteins (HSV-1 [2]; FTI-1 50 μM or 100 μM in culture medium, vs control without inhibitor) |
| --- | --- | --- | --- | --- | --- | --- | --- | --- | --- | --- | --- | --- | --- |
| C[S+]([O-])c1ccc(-c2nc(-c3ccncc3)c(-c3ccc(F)cc3)[nH]2)cc1 (centres unmarked) [SB203580] | does not effect virus yield | lack of phosphorylation of ATF-2 | neither SB203580 [11] a specific inhibitor of p38 kinase, or Wortmannin [12] a specific inhibitor of P13-kinase, had any measurable effect | no effect on HSV-1 infection |  |  |  |  |  |  |  |  |  |
| COc1cccc(-c2cc(=O)c3ccccc3o2)c1N [PD98059] | dramatically decreased virus yield |  | partially blocked HSV-1 infection |  | lack of phosphorylation of ERK1/2 | PKR phosphorylation is restored | reduced |  |  |  |  |  |  |
| CSCC[C@H](NC(=O)[C@H](Cc1ccccc1)NC[C@@H](NC[C@@H](N)CS)C(C)C)C(=O)O [FTI-1] | dramatically decreased virus yield |  | effectively block HSV-1 infection |  |  |  |  | reduced phosphorylation of ERK1/2 | PKR phosphorylation is restored | dramatically reduces the level of viral proteins detected | inhibited HSV-1 infection | no effect | drastically reduced |
